# Data reported in the METLIN SMRT retention time set (Domingo-Almenara et al. 2019).
# Assay: gradient 5% acetonitrile 3 min, to 50% in 2 min, to 85% in 15 min, held 3 min, 100 µL/min
# Details: column: Zorbax Extend-C18 2.1 x 50 mm; eluents: water / acetonitrile, 0.1% formic acid
# Procedure, shortened: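 Retention times of pure standards were taken from adduct peaks that were selected by computer and manually inspected. Over 3 months, mixtures of ~100 molecules were run by HPLC–quadrupole time-of-flight mass spectrometry in positive and negative ionization mode. The Zorbax Extend-C18 column (2.1 × 50 mm, 1.8 μm) ran at 100 μL/min in water and acetonitrile, each containing 0.1% formic acid, with 40 μL dead volume and 900 μL dwell volume.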
row,Structure (SMILES),RP-LC retention time [s]
1,CCCCC(=O)Nc1nc(-c2ccc3c(c2)NC(=O)CO3)c(C)s1,839
2,CCCCOC(=O)C1=C(C)NC(=O)NC1c1ccc(OCCC)c(OC)c1 (centres undefined),884
3,Cc1ccc2c(C(=O)NCc3ccc(C)o3)cc(NC(=O)C3CCC3)cc2n1,618
4,CC(C)NC(=O)c1ccc(OCC2CCCN2C(=O)c2ccoc2)cc1 (centres undefined),747
5,CCn1cc(-c2ccc(C)cc2)cc1C(=O)N1CCN(C)CC1,657
6,Cc1cc(C)cc(N2C(=O)CN(S(=O)(=O)c3ccccc3)CC2(C)C(=O)NC2CCCC2)c1 (centres undefined),968
7,COc1cccc(CNC(=O)NCCC2CCN(S(=O)(=O)c3ccccc3)CC2)c1,821
8,CC(C)(C)n1c(=O)c2ccc(F)cc2n1CC(=O)N1CCN(c2ccccc2)CC1,1180
9,COCCn1c(C)c(C)c(S(=O)(=O)c2ccc(C)cc2)c1NC(=O)C1CCCO1 (centres undefined),859
10,O=c1n(Cc2cccc(Cl)c2)nc2ccc(S(=O)(=O)N3CCCCCC3)cn12,1040
11,Cn1cc(-c2cc3n(n2)CCCN3C(=O)CCC(=O)NCCN2CCOCC2)c2ccccc21,618
12,O=C(CN1CCN(Cc2ccccc2F)C1=O)NCCc1cccs1,778
13,Cc1cccc2c(=O)n(C3CCN(C(=O)Nc4cccc(C(F)(F)F)c4)CC3)cnc12,952
14,Cc1cc(C(F)(F)F)nn1CC(=O)NCC1Cn2cccc2CN1C (centres undefined),726
15,Cc1ccc(C)c(NS(=O)(=O)c2cc(-c3[nH]ncc3C(=O)N3CCCC3)oc2C)c1,760
16,O=C(c1cnc2ccccc2n1)N1CCN(Cc2ccsc2)CC1,556
17,O=C(NCc1ccc(F)cc1)N1CCC(OC2CCN(Cc3ccccc3)CC2)CC1,658
18,Cc1noc(C2CN(C(=O)Cc3ccccc3)CC23CCN(C)CC3)n1 (centres undefined),920
19,O=C(c1ccccn1)N1CCC2(CC1)NC(=O)N(Cc1ccccc1Cl)C2=O,716
20,CC(C)Cn1cc(S(=O)(=O)Nc2cccc(F)c2)c2cccnc21,912

row,Structure (SMILES),RP-LC retention time [s]
1,O=C(Cn1ccnc1-c1ccnc(N2CCSCC2)c1)NC1CCCC1,619
2,CC(=O)Nc1ccc(SCC(=O)N(C(C)C)C(C)C)nn1,675
3,O=C(C1CCN(c2cncnc2N2CCCC2)CC1)N1CCCCC1,613
4,Cc1ccc(CNC(=O)N2C[C@@H](F)C[C@H]2C(=O)N2CCc3ccccc3C2)cc1,887
5,CN1C(=O)Cc2ccccc2C1C(=O)NCc1ccc(Cl)cc1 (centres undefined),762
6,Cc1nc([C@@H]2CN(C(=O)c3cc(C)n(Cc4ccco4)c3C)C[C@H]2C(N)=O)n[nH]1,618
7,COc1ccc(S(=O)(=O)N2CCOC2CNC(=O)C(=O)NCc2ccccn2)cc1C (centres undefined),603
8,Cn1c(CNC(=O)c2cn3ccccc3n2)nc2ccccc21,564
9,Cc1ccccc1NC(=O)N1CC(F)(F)C[C@H]1CN1CCCC1,622
10,CCc1ccc(S(=O)(=O)Nc2ccc(C3(C(=O)NCC4CCCO4)CC3)cc2)cc1 (centres undefined),867
11,O=C(COc1ccccc1F)NCC(O)(c1ccccc1)C(F)(F)F (centres undefined),860
12,O=C(Cc1csc(-c2c(Cl)cccc2Cl)n1)NCCc1c[nH]c2ccccc12,925
13,CSc1ccc(Cl)c(C(=O)Nc2ccc3c(N4CCOCC4)ncnc3c2)c1,669
14,CC(=O)Nc1ccc2c(c1)nc(CN1CCN(C(=O)c3ccco3)CC1)n2C,576
15,Cc1cccc(CNC(=O)CN2CCN(Cc3ccccc3)C2=O)c1,808
16,CC1=C(c2ccccc2)S(=O)(=O)N=C1N1CCCN(C(=O)c2ccco2)CC1,719
17,C[C@@H]1CCC2[C@](C)(CO)[C@@H](O)CC[C@]2(C)[C@]12CCC(CO)(CCO)O2 (some centres undefined),829
18,Cc1ccc(C(C)NC(=O)c2cccc(C3CCCN(C(=O)NC(C)C)C3)c2)c(C)c1 (centres undefined),969
19,Cc1ccccc1CNC(=O)CN1CCN(Cc2ccccc2)C1=O,806
20,O=C(Nc1cc(F)cc(F)c1)c1ccc(N2CCN(c3ccccn3)CC2)c([N+](=O)[O-])c1,698

# Now from value to molecule:
row,RP-LC retention time [s],Structure (SMILES)
1,1100,Cc1ccc(-c2ccc(-n3nc(C)c(S(=O)(=O)Nc4ccc5c(c4)OCCO5)c3C)nn2)cc1C
2,671,COc1ccc(CC(=O)NC(C)C(=O)Nc2nc3ccccc3[nH]2)cc1Cl (centres undefined)
3,1010,COc1ccc(-c2nc(NC(=O)CS(=O)(=O)c3ccc(C)cc3)sc2C)cc1
4,807,Cn1nc(C(=O)N2CCCN(c3cc(-c4ccc(Br)cc4)[nH]n3)CC2)c2ccccc21
5,790,Cc1ccc(Nc2c(-c3ccc(C(=O)O)cc3)nc3cnccn23)cc1Cl
6,578,CC(NC(=O)CCNc1c(-c2ccc(F)cc2)nc2cnccn12)c1ccccn1 (centres undefined)
7,728,CCCn1cnc2ccc(-c3noc(-c4cccc(OC)c4)n3)cc21
8,1040,Cc1nc2c(sc3nc(-c4ccccc4)ccc32)c(=O)n1CC(=O)Nc1ccc(F)cc1
9,906,Cc1ccc(-c2noc(C(=O)N3CCOCC3)n2)cc1S(=O)(=O)N1CCN(c2ncccn2)CC1
10,1020,CSc1ccc(-c2noc(Cn3c(=O)n(-c4ccccc4)c(=O)c4sccc43)n2)cc1
11,1130,CCn1cc(-c2nc(C)c(C(=O)Nc3cc(OC)ccc3OC)s2)c2cccnc21
12,989,Cc1ccc(NS(=O)(=O)c2c(-c3nc(C4CCC4)no3)c(C)n(C)c2C)cc1
13,1200,CCc1ccc(N2CC(c3noc(-c4ccc(Cl)cc4)n3)CC2=O)cc1 (centres undefined)
14,758,COc1ccc(C(C)(C)C)cc1S(=O)(=O)Nc1ccc(-c2cn3ccc(C)nc3n2)cc1
15,870,COc1ccc(C)c2sc(NS(=O)(=O)c3ccc(C)cc3)nc12
16,843,COc1cccc(-c2ccc3nc(N4CCC(C(=O)N5CCOCC5)CC4)sc3n2)c1
17,837,COc1nn(C)cc1C(=O)Nc1nc(-c2nc3ccccc3s2)cs1
18,1240,CCOc1ccc(-c2noc(Cc3nc(-c4ccccc4)cs3)n2)cc1
19,879,CCc1ccc(C(=O)NC2CCN(c3cc(-c4ccc(Cl)cc4)[nH]n3)C2)cc1 (centres undefined)
20,702,Cc1ccc(CS(=O)(=O)Nc2ccc3c(c2)nc(-c2ccc(C(=O)NC(C)C)cc2)n3C)cc1
21,904,COc1ccc(-c2nc(C3CC(=O)N(c4ccc(OC)cc4)C3)no2)cc1 (centres undefined)
22,943,Cc1ccc(NC(=O)N2CCc3c(c(-c4nnc(-c5ccc(F)cc5)o4)nn3C)C2)cc1C
23,938,CCOc1ccc(-c2noc(-c3nn(-c4cccc(OC)c4)ccc3=O)n2)cc1
24,1110,COc1cccc(NS(=O)(=O)c2cc(-c3cc(C(F)(F)F)on3)sc2C)c1
